Measurements as given in US10046007B2, “Compositions and methods for treatment of short telomere disorders” (PRESCIENT PHARMA LLC, priority 2015, dated 2018).
Entries after “also recorded” stand apart in the source; their conditions may differ. Like-named read-outs stand apart in the source and are kept apart here.

Test system: bleomycin-induced pulmonary fibrosis
Procedure: Bleomycin solution: bleomycin (commercially available from SigmaAldrich) in PBS was used for intra-tracheal bleomycin administration. (0.04 U of bleomycin in 50 μl in PBS/mouse/per inhalation).
13 female mice (commercially available from Charles River Laboratories, BALB/C) were randomly divided into 4 groups, as follows:
Each mouse was anesthetized with 87.5 mg ketamine/kg and 12.5 mg xyline/kg cocktail 0.1 ml/20 g body weight IM. For both lithium and bleomycin intra-tracheal administration, tracheal intubation was performed using with a 23 gauge IV catheter through the mouth, followed by insertion of PE-10 tubing into the trachea. After placement of the PE-10 tubing inside the trachea, the 23 gauge iv catheter was quickly removed. Lithium or bleomycin was instilled through the PE-10 tubing. The instillation volume was 50 μl each administration for each mouse. The procedure time was around 15 minutes per mouse.
For Group 1 (n=1), no treatment was administered and the mouse was sacrificed as control.
The mice was sacrificed at 21 days after first lithium administration. The mice were sacrificed using pentobarbital 200 mg/kg ip. After the mice were sacrificed, the lungs were quickly harvested and perfused with 10% formalin buffer through the trachea. The lung tissue was then fixed in 10% formalin buffer for 3 days.
For Group 3 (n=6), the mice were pre-treated with intra-tracheal lithium instillation (0.15 mM in 50 μl saline) every other day for 3 administrations. 7 days after the final lithium pre-treatment, intra-tracheal bleomycin was instilled (0.04 U in 50 μl saline). The mice in this group were then sacrificed 14 days after bleomycin administration. The mice were sacrificed using pentobarbital 200 mg/kg ip. After the mice were sacrificed, the lungs were quickly harvested and perfused with 10% formalin buffer through the trachea. The lung tissue was then fixed in 10% formalin buffer for 3 days.
For Group 4 (n=5), only intra-tracheal bleomycin was instilled (0.04 U in 50 μl saline). The mice in this group were then sacrificed 14 days after bleomycin administration. The mice were sacrificed using pentobarbital 200 mg/kg ip. After the mice were sacrificed, the lungs were quickly harvested and perfused with 10% formalin buffer through the trachea. The lung tissue was then fixed in 10% formalin buffer for 3 days.
Following the 3 day period, macroscopical examination of the lung tissue was performed by dissection. The lung tissue were cut into 1-2 mm slices and visually inspected for areas of grey-white discoloration. […] The lung slices were then embedded in paraffin and sectioned into 5-μm-thick sections. Hematoxylin and eosin (H&E) and trichrome staining (abcam; ab150686) were performed for tissue samples from each group. The stained slides were then examined under light microscope (Olympus BX51) and photographed (Olympus DP-73 digital camera).
An Ashcroft score was then calculated for each of the group (T Ashcroft at al., Simple method of estimating severity of pulmonary fibrosis on a numerical scale. J Clin Pathol 1988; 41:467-470). The Ashcroft score provides a simple method of estimating severity of pulmonary fibrosis on a numerical scale.

O=C([O-])[O-].[Li+].[Li+] [lithium carbonate]
signs of lung tissue damage, macroscopic and microscopic (H&E, trichrome) (Group 2: lithium inhalation only): did not show any macroscopically or microscopically sign of lung tissue damage | Ashcroft score (Group 2: lithium inhalation only, 0.15 mM lithium carbonate 50 μl intratracheal every other day for 3 administrations, sacrificed at 21 days): 0 | Ashcroft score (Group 3: intra-tracheal lithium 0.15 mM in 50 μl every other day for 3 administrations, bleomycin 0.04 U 7 days after final lithium, sacrificed 14 days after bleomycin): 0 | signs of lung tissue damage, macroscopic and microscopic (H&E, trichrome) (Group 3: lithium pre-treatment followed by bleomycin): did not reveal any signs macroscopically or microscopically of lung tissue damage | pulmonary fibrosis development induced by bleomycin (lithium pre-treatment by inhalation, mice): completely abolishes

bleomycin
macroscopic examination of lung sections (grey-white discoloration) (Group 4: bleomycin alone): only areas of such discoloration were found in the lung tissue of Group 4 mice; also recorded: multiple areas of grey-white discoloration mostly in peri-pleural areas | microscopic examination of discoloured lung areas (Group 4: bleomycin alone): profound fibrotic changes | Ashcroft score (Group 4: intra-tracheal bleomycin alone 0.04 U in 50 μl, sacrificed 14 days after bleomycin): 4.03
